# Patent US20030005484A1, “Microbiocidal and pesticidal aromatic aldehydes” (ProGuard, Inc., priority 1994, published 2003)
# System: grape phylloxera
# Assay: reinoculation bioassay of roots excised from leaf-treated vines
# Assay type: in vivo, Daktulosphaira vitifoliae
# Conditions: for phylloxera counted: 1st instar / phylloxera counted: 2nd instar / phylloxera counted: 3rd instar / phylloxera counted: 4th instar / phylloxera counted: Adults / phylloxera counted: Eggs: roots taken 5 weeks after treatment, 25 day bioassay
# Description: […] For this bioassay, root sections were inoculated with 20 eggs and the roots maintained as the original colonies were maintained (see description above). After 25 days, the number of individual phylloxera of each age class were counted.
structure (smiles),measurement,setting,value
O=C/C=C/c1ccccc1 [cinnamic aldehyde],phylloxera counted: 1st instar,300 ppm leaf treatment,0
same,phylloxera counted: 2nd instar,300 ppm leaf treatment,6
same,phylloxera counted: 3rd instar,300 ppm leaf treatment,5
same,phylloxera counted: 4th instar,300 ppm leaf treatment,0
same,phylloxera counted: Adults,300 ppm leaf treatment,4
same,phylloxera counted: Eggs,300 ppm leaf treatment,16
same,phylloxera counted: 1st instar,1000 ppm leaf treatment,0
same,phylloxera counted: 2nd instar,1000 ppm leaf treatment,1
same,phylloxera counted: 3rd instar,1000 ppm leaf treatment,4
same,phylloxera counted: 4th instar,1000 ppm leaf treatment,2
same,phylloxera counted: Adults,1000 ppm leaf treatment,1
same,phylloxera counted: Eggs,1000 ppm leaf treatment,2
same,phylloxera counted: 1st instar,3000 ppm leaf treatment,0
same,phylloxera counted: 2nd instar,3000 ppm leaf treatment,2
same,phylloxera counted: 3rd instar,3000 ppm leaf treatment,1
same,phylloxera counted: 4th instar,3000 ppm leaf treatment,1
same,phylloxera counted: Adults,3000 ppm leaf treatment,0
same,phylloxera counted: Eggs,3000 ppm leaf treatment,0
same,phylloxera counted: 1st instar,"10,000 ppm leaf treatment",0
same,phylloxera counted: 2nd instar,"10,000 ppm leaf treatment",2
same,phylloxera counted: 3rd instar,"10,000 ppm leaf treatment",0
same,phylloxera counted: 4th instar,"10,000 ppm leaf treatment",0
same,phylloxera counted: Adults,"10,000 ppm leaf treatment",0
same,phylloxera counted: Eggs,"10,000 ppm leaf treatment",0
same,establishment of new phylloxera populations on roots from treated plants,"roots taken 1, 2 and 5 weeks after treatment, infested with untreated eggs",not from the CNMA-treated plants
